From patent publication US11400168B2, “Methods and systems for noninvasive control of brain cells and related vectors and compositions” (CALIFORNIA INSTITUTE OF TECHNOLOGY, priority 2017, dated 2022)

How the values were obtained:
[1] = molecular target: T1, hM4Di (Homo sapiens, UniProt P08173, A203G/Y113C); test: Context fear conditioning and recall (freezing in Context A) with hM4Di targeted to ventral and dorsal hippocampus; assay type: in vivo, mice
T1 construct: host or cells: mouse (C57BL6J) hippocampal excitatory neurons transduced in vivo with AAV9
T1 sequence (P08173 1-479 Y113C/A203G): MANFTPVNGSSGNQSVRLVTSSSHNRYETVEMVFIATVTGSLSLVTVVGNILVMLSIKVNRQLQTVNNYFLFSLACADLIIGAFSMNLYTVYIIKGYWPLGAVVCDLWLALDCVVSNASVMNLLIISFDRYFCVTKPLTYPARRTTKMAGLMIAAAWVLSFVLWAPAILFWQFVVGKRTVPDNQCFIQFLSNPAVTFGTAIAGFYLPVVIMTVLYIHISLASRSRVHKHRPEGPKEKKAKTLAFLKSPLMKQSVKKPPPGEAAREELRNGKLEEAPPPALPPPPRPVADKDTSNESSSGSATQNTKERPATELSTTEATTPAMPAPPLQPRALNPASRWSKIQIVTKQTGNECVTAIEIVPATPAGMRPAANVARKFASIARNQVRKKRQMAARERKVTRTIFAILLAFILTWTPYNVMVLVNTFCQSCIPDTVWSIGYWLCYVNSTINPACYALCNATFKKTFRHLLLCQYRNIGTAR
Method: (§1) Behavioral studies for fear conditioning were performed in sound-attenuated fear conditioning chambers (30×25×25 cm, Med Associates). Animals were trained and tested for context fear in Context A, which comprised a staggered wire grid floor, white light, 5% acetic acid for scent and no background noise. Locomotor testing was performed in Context B, which was differentiated from Context A by chamber shape, floor, illumination, odor, background noise and room location. Animal activity was recorded and quantified using Video Freeze software (Med Associates). For cued training, the tone was 80 dB and 30s.
(§2) Mice were injected with CNO (10 mg/kg, IP) or saline (IP), and after 40-60 minutes underwent context and cued fear conditioning in Context A. This timeframe was chosen to allow CNO to reach its pharmacokinetic peak[88]. A 3-minute initial baseline period was followed by 3×30-s presentations of a tone co-terminated with a 2-s foot shock (0.7 mA), with inter-trial interval of 60 s. After the trials, the mice remained in the context for an additional 60 s, after which they were transported back into the vivarium. After 24 h, mice were placed in Context A to record context fear for the duration of training (8 min. and 40 s).
Mice were recorded using automated near-infrared video tracking in the fear conditioning chamber using VideoFreeze software. Mouse motion was measured using the activity score, from a video recording at 30 frames/s, with the motion threshold set at 18 activity units (standard value set in software). Freezing was defined as an activity score below 18 units for at least 1 s. Average freezing in the context test was scored over the whole trial. Due to automated data acquisition and evaluation, no blinding was necessary.
mice were excluded from statistical analysis if their histologically determined DREADD expression was below 30% of cell bodies in dorsal CA3 region of the hippocampus. This threshold was chosen based on previous studies showing that behavioral effects generally require modulation of at least 30% of the neurons in a targeted region[89, 90] and dorsal CA3 being the most robustly transfected hippocampus region. The resulting analyzed groups had identical levels of expression (55.1% for Saline and 60.5% for CNO groups, p=0.26, heteroscedastic, two-tailed, t-test). […] Variability in gene expression may have been due to variability in intravenous injections of virus during the FUS-BBBO procedure, since we found no difference between these mice in T1 MRI signal enhancement post FUS-BBBO (FIG. 15, panel b).
To assess the ability of ATAC to inhibit targeted neurons, and to test the functionality of this technology in a behavioral paradigm, FUS-BBBO was used to target inhibitory DREADDs (hM4Di) to ventral and dorsal hippocampus (FIG. 5, panel a), and the impact of CNO administration on the formation of contextual fear memories was assessed. This well-established behavioral paradigm has been used in studies of anxiety, phobias, PTSD and fear circuitry[99]° [100]. Fear conditioning has also served as a testing ground for other novel neuromodulatory techniques. Since the hippocampus plays an essential role in memory formation, it is hypothesized that inhibiting it noninvasively using the ATAC strategy would reduce the ability of mice to form fear memories.
Two groups of control mice were either completely untreated or received intravenous virus without FUS-BBBO. After 6-8 weeks, the mice underwent a fear conditioning protocol (FIG. 5, panel a). In this protocol, the mice are placed in a unique environment (defined by chamber shape, lighting, smell and sound; Context A in FIG. 5, panel a) while receiving three electric foot shocks, causing them to associate this environment with the noxious stimulus in a process known as context fear conditioning. […]

[2] = Exploratory behavior in novel environment (Context B, open field test); assay type: in vivo; conditions: all groups of mice (ATAC, AAV without FUS-BBBO, wild-type), 3 minutes
Method: as §1
Between 30 and 45 minutes after the context fear test, mice were transported to another room, placed in Context B and allowed to explore the chamber for 3 minutes while their activity was recorded. Due to automated data acquisition and evaluation, no blinding was necessary.
One day after fear conditioning, the mice were placed in a novel environment (Context B in FIG. 5, panel a), which they were allowed to explore freely for 3 minutes. The exploratory behavior of all groups of mice was likewise unaffected by CNO administration (FIG. 5, panel e-g).

[3] = Cued conditioning acquisition (freezing during third tone of training); assay type: in vivo; conditions: ATAC, wild-type and AAV without FUS-BBBO mice
Method: as §1
as §2, with “s). […]” for “s).”

[4] = molecular target: T2, hM3Dq (Homo sapiens, UniProt P20309, A239G/Y149C); test: c-Fos activation in dorsal CA3 of hippocampus after CNO in mice expressing hM3Dq-mCherry (ATAC); assay type: in vivo; set-up: host or cells: mouse (C57BL6J) hippocampal excitatory neurons transduced in vivo with AAV9; conditions: CNO 1 mg/kg IP, 2.5 h, 22 weeks after FUS-BBBO, n=6
Method: C57BL6J male mice of 13 weeks of age underwent FUS-BBBO to administer AAV9 carrying hM3Dq-mCherry into the hippocampus. Subsequently, mice were housed singly to reduce background C-fos expression. After 22 weeks of expression, mice received an IP injection of 1 mg/kg CNO in sterile saline, and were returned to home cages. After 150 minutes, mice were anesthetized using Ketamine/Xylazine solution (80 mg/kg and 10 mg/kg, respectively, in PBS) and perfused with a cold PBS/Heparin (10 U/ml), and immediately afterwards with 10% Neutral Buffered Formalin (NBF). Their brains were extracted and post-fixed in 10% NBF for at least 24 hours. Brain sections (50 μm) were obtained using a VF-300 compresstome (Precisionary Instruments). […]
(§3) For activation of hippocampus, the histological evaluation was performed by an observer blinded to the identity (hM3Dq positive, or negative) of granular layer nuclei in dCA3. The expression status of the neurons was determined after the scoring of c-Fos positivity. The activation of TH neurons was evaluated by an observer blinded to the presence of FUS-BBBO targeting at a given site. […] A three-dimensional reference atlas[82] was used to choose the appropriate regions and brain sections for each mouse and contralateral and ipsilateral controls to ascertain consistency in choice of analyzed sections. […]

[5] = molecular target: T2, hM3Dq; test: Intersectional ATAC: c-Fos activation of TH-positive neurons in SNc/VTA of TH-CRE mice; assay type: in vivo, TH-CRE transgenic mice; set-up: expressed in transfected cells; host or cells: TH-positive neurons of SNc/VTA in TH-CRE transgenic mice, transduced in vivo with AAV9; conditions: CNO 1 mg/kg IP, 2 h; 9 weeks expression; n=5 mice
Method: After FUS-BBBO, the mice were imaged again using the same FLASH sequence to confirm opening of the BBB and appropriate targeting. Immediately afterwards, mice were placed in the home cage for recovery. The TH-CRE animals, aged 18 weeks, were subjected to FUS-BBBO using the same protocol, and using the same dose of AAV9, as for C57BL6J mice. All TH-CRE animals were females.
as §3, with “site. TH-CRE mice expressed hM3Dq for 9 weeks after FUS-BBBO, and then were given 1 mg/kg CNO. After 2 h, they were anesthetized with ketamine/xylazine (80/10 mg/kg in PBS) and perfused using cold heparine/PBS (10 u) and then 10% NBF.” for “site.”

T2 sequence (P20309 whole entry Y149C/A239G, the tested form may be a part): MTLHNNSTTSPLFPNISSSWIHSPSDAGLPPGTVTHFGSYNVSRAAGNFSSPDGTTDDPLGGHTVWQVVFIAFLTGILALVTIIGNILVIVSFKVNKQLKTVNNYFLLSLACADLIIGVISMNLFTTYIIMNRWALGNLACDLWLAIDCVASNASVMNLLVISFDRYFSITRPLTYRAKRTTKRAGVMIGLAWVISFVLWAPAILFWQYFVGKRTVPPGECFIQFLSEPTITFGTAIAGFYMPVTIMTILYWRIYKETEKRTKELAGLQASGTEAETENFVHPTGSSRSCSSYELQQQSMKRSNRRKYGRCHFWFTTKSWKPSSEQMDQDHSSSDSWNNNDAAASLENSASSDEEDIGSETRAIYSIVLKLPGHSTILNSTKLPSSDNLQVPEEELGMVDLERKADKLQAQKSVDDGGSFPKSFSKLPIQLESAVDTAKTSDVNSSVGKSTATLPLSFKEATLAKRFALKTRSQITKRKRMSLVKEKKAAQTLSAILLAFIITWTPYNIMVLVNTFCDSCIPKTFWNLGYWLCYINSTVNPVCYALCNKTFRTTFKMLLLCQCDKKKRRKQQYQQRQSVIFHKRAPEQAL

Compound: C[N+]1([O-])CCN(C2=Nc3cc(Cl)ccc3Nc3ccccc32)CC1 [CNO, clozapine-N-oxide]
- time spent freezing in fear recall context ([1]; ATAC mice (hM4Di), CNO 10 mg/kg IP 40-60 min before conditioning, recall 24 h later, saline 53.2%): 21.8%
- context fear (freezing) without excluding mice with expression below 30% ([1]; ATAC mice treated with CNO, all mice, saline 53.2%): 34%
- reduction in fear memory versus saline ([1]; ATAC mice, CNO before conditioning, n=13 and 7): more than 2 fold
- context fear relative to untreated controls ([1]; CNO treatment alone in wild-type mice): did not result in a reduction in context fear
- correlation (r) of DREADD expression in dorsal CA3 with formation of context fear memories ([1]; mice treated with CNO, all mice, n=11): 0.62
- reduction in fear memory formation ([1]; single injection of CNO several weeks after FUS-BBBO): 2.4 fold
- context fear relative to untreated controls ([1]; systemic AAV9 injection without FUS-BBBO, CNO): did not result in a reduction in context fear
- exploratory behavior [2]: unaffected
- cued freezing at the end of the training session [3]: unaffected
- likelihood of c-Fos staining, hM3Dq-positive cells versus cells not expressing hM3Dq [4]: 5.8 times
- increase in activation (c-Fos) among TH-positive neurons, ATAC-targeted side versus contralateral [5]: 7.3 fold
